MIC data for seven compounds are collected here from patent US7332476B2, “Pyridyl substituted ketolide antibiotics” (Novartis AG, priority 2003, dated 2008).

Test in all cases: MIC, broth microdilution (NCCLS)
In general terms: Broth dilution looks for growth in wells or tubes with falling amounts of substance.

The subject of test [1] is Enterococcus faecalis Enfa_29212. The class given is cell-based. As to conditions: Table 7, Strain ID D (Table 6): E. faecalis Enfa_29212; in µg/mL (unit assumed). The protocol:
(§1) Strains. The bacterial isolates listed in Table 4 were cultivated from −70° C. frozen stocks by two consecutive overnight passages (P1, P2) at 35° C. on 5% blood agar (Remel, Lenexa, Kans.). Chocolate agar (Remel) is used for Haemophilus influenzae. H. influenzae and Streptococcus pneumoniae are incubated in 5-10% CO2
(§2) Drug Stock Preparation. To determine the amount of solvent to be used to give the desired final concentration, the formula “weight obtained in mg/final concentration in mg/ml” will be used. It will give the amount of solvent in ml needed to be added to give the desired concentration. For example, if 2.5 mg/ml is the desired concentration and the weight of compound is 13.7 mg, then the amount of solvent to be added is […]. Methanol is used as the solvent to dissolve the test compounds. Further dilution of stock is done in sterile, deionized water. Drug stocks are kept frozen at −70° C., protected from light.
(§3) Susceptibility Testing. MICs are determined by the broth microdilution method in accordance with the NCCLS guidelines. In brief, organism suspensions are adjusted to a 0.5 McFarland standard to yield a final inoculum between 3×10^5 and 7×10^5 CFU/ml. Drug dilutions and inocula are made in sterile, cation adjusted Mueller-Hinton Broth (CAMHB) (Remel) for all but S. pneumoniae [CAMHB with 2-5% lysed horse blood (Remel)] and H. influenzae [Haemophilus Test Medium (Remel)]. An inoculum volume of 100 μl is added to wells containing 100 μl of broth with 2-fold serial dilutions of drug. All inoculated microdilution trays are incubated in ambient air at 35° C. for 18-24 hours, except for S. pneumoniae, and H. influenzae (both at 5-10% CO2).
(§4) Following appropriate incubation, the MIC is determined and the MIC is defined as the lowest concentration of the drug that prevented visible growth.
(§5) Strains. The bacterial isolates listed in Table 8 were cultivated from −70° C. frozen stocks by two consecutive overnight passages (P1, P2) at 35° C. on 5% blood agar (Remel, Lenexa, Kans.). Chocolate agar (Remel) is used for Haemophilus influenzae. H. influenzae and Streptococcus pneumoniae are incubated in 5-10% CO2
(§6) Following appropriate incubation, the MIC is determined and the MIC is defined as the lowest concentration of the drug that prevented visible growth. […] Antibacterial activity of representative compounds of the invention were compared against telitromycin.

Test [2] deals with Haemophilus influenzae Hain_49247. The class given is cell-based. As to conditions: Table 7, Strain ID M (Table 6): H. influenzae Hain_49247; unit assumed. As for the experimental part: as §1, §2, §3, §4, §5, §6
Test [3] deals with Staphylococcus aureus Stau_29213. The class given is cell-based. As to conditions: Table 7, Strain ID A (Table 6): S. aureus Stau_29213; in µg/mL (unit assumed). As for the experimental part:
as §1, §2, §3, §4, §5, §6

In test [4] the test system is Staphylococcus epidermidis Step_14990. The class given is cell-based. Conditions: Table 7, Strain ID B (Table 6): S. epidermidis Step_14990; in µg/mL (unit assumed). The protocol: as §1, §2, §3, §4, §5, §6
For test [5], the system named is Staphylococcus epidermidis Step_f50654. The class given is cell-based. As to conditions: Table 7, Strain ID C (Table 6): S. epidermidis Step_f50654; in µg/mL (unit assumed). The protocol:
as §1, §2, §3, §4, §5, §6

Test [6] relates to Streptococcus pneumoniae Stpn_Erm S 4297. The class given is cell-based. Conditions: Table 7, Strain ID J (Table 6): S. pneumoniae Stpn_Erm S 4297. As for the experimental part: as §1, §2, §3, §4, §5, §6
Test [7] concerns Streptococcus pneumoniae Stpn_Mef S 3427. The class given is cell-based. Conditions: Table 7, Strain ID L (Table 6): S. pneumoniae Stpn_Mef S 3427; in µg/mL (unit assumed). As for the experimental part: as §1, §2, §3, §4, §5, §6
The test system of test [8] is Streptococcus pyogenes Stpy_8668. The format is cell-based. Conditions: Table 7, Strain ID E (Table 6): S. pyogenes Stpy_8668. Put shortly: (§7)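 NCCLS broth microdilution with 2-fold serial drug dilutions (methanol stocks diluted in water); inoculum 3×10^5–7×10^5 CFU/ml in CAMHB, with 2-5% lysed horse blood for S. pneumoniae. Incubation 18-24 h at 35° C., ambient air, except S. pneumoniae (5-10% CO2). MIC is lowest concentration preventing visible growth.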

The subject of test [9] is Streptococcus pneumoniae Stpn_49619. The class given is cell-based. As to conditions: Table 7, Strain ID F (Table 6): S. pneumoniae Stpn_49619. Put shortly:
as §7

Test [10] concerns Streptococcus pneumoniae Stpn_297-749. The format is cell-based. Conditions: Table 7, Strain ID G (Table 6): S. pneumoniae Stpn_297-749. Put shortly:
as §7

The test system of test [11] is Streptococcus pneumoniae Stpn_280-962. The format is cell-based. As to conditions: Table 7, Strain ID H (Table 6): S. pneumoniae Stpn_280-962. Put shortly: as §7
The test system of test [12] is S. pneumoniae Stpn_Erm 6849. The class given is cell-based, Streptococcus pneumoniae. Conditions: Table 7, Strain ID I (Table 6): S. pneumoniae Stpn_Erm 6849; unit assumed. As for the experimental part: as §1, §2, §3, §4
In test [13] the test system is Streptococcus pneumoniae Stpn_Mef 5654. The class given is cell-based. As to conditions: Table 7, Strain ID K (Table 6): S. pneumoniae Stpn_Mef 5654; in µg/mL (unit assumed). As for the experimental part: as §1, §2, §3, §4, §5, §6

Values after ≈ are worked out from the molar mass of the structure shown.

`CCC1OC(=O)C(C)C(=O)C(C)C(OC2OC(C)CC(N(C)C)C2O)C(C)(OC)CC(C)C(=O)C(C)C2C1OC(=O)N2CCCCc1cnc2ccccc2c1` (stereo not shown) [Compound 20n]: the MIC in [1] is 0.1; in test [2], 6.25 µg/mL (≈ 7.99 µM); in [3] it was 0.4; in test [4], 0.2; in test [5], 0.4; in test [6] (unit assumed), 0.1 µg/mL (≈ 0.128 µM). Besides, the MIC in test [7] was 0.1; in [8] it was “=0.05”; in test [9], “=0.05”; in test [10], “=0.05”; in test [11], “=0.05”; in [12], 0.4 µg/mL (≈ 0.512 µM). The compound also yielded an MIC in [13] of 0.2.

As for `CCC1OC(=O)C(C)C(=O)C(C)C(OC2OC(C)CC(N(C)C)C2O)C(C)(OC)CC(C)C(=O)C(C)C2C1OC(=O)N2OCCOc1ccccc1` (stereo not shown) [Compound 20w], the MIC in test [1] turned out to be 0.2; in test [2], 50 µg/mL (≈ 68 µM); in test [3] it was 3.13; in test [4], 1.56; in test [5], 3.13; in [6] (unit assumed), 3.13 µg/mL (≈ 4.26 µM). The MIC in test [7] was 0.1; in test [8] it was “=0.05”; in test [9] it was “=0.05”; in test [10], “=0.05”; in test [11] it was “=0.05”; in [12], 12.5 µg/mL (≈ 17 µM). Also, in test [13], the MIC is reported as 0.4.

Regarding `CCC1OC(=O)C(C)C(=O)C(C)C(OC2OC(C)CC(N(C)C)C2O)C(C)(OC)CC(C)C(=O)C(C)C2C1OC(=O)N2CCCCc1ncc(-c2ccccc2)s1` (stereo not shown) [Compound 20t], the MIC in [1] is 0.4; in test [2], 12.5 µg/mL (≈ 15.4 µM); in test [3] it was 0.78; in [4], 0.78; in test [5], 0.4; in [6] (unit assumed), 1.56 µg/mL (≈ 1.92 µM). The MIC is 0.1 in test [7]; 0.2 µg/mL (≈ 0.246 µM) in [8] (unit assumed); “=0.05” in test [9]; “=0.05” in [10]; “=0.05” in test [11]; 25 µg/mL (≈ 30.7 µM) in test [12]. Besides, the MIC in test [13] is 1.56.

In the case of `CCC1OC(=O)C(C)C(=O)C(C)C(OC2OC(C)CC(N(C)C)C2O)C(C)(OC)CC(C)C(=O)C(C)C2C1OC(=O)N2CCCCc1cc(C)nc2ccccc12` (stereo not shown) [Compound 20o], the MIC in [1] is 0.1; in [2], 3.13 µg/mL (≈ 3.93 µM); in test [3] it was 0.2; in [4] it was 0.2; in test [5], 0.2; in test [6] (unit assumed), 0.1 µg/mL (≈ 0.126 µM). Moreover, the MIC in test [7] was 0.1; in test [8], “=0.05”; in test [9] it was “=0.05”; in [10], “=0.05”; in test [11], “=0.05”; in test [12] it was 1.56 µg/mL (≈ 1.96 µM). The compound further came in with an MIC in test [13] of 0.2.

As for `CC[C@H]1OC(=O)[C@H](C)C(=O)[C@H](C)[C@@H](OC2O[C@H](C)C[C@H](N(C)C)[C@H]2O)[C@@](C)(OC)C[C@@H](C)C(=O)[C@H](C)[C@H]2N(CCCC(C)(C)n3cnc(-c4cccnc4)c3)C(=O)O[C@]12CC` (stereo partly drawn) [Example 31, (3aS,4R,7R,9R,10R,11S,13R,15R,15aR)-3a,4-diethyl-11-methoxy-7,9,11,13,15-pentamethyl-1-[4-methyl-4-(4-pyridin-3-yl-1H-imidazol-1-yl)pentyl]-2,6,8,14-tetraoxotetradecahydro-2H-oxacyclotetradecino[4,3-d][1,3]oxazol-10-yl-3,4,6-trideoxy-3-(dimethylamino)-D-xylo-hexopyranoside], the MIC in test [1] is 0.2; in test [2] it was 6.25 µg/mL (≈ 7.32 µM); in test [3] it was 0.2; in test [4] it was 0.4; in test [5] it was 0.4; in [6] (unit assumed), 0.2 µg/mL (≈ 0.234 µM). In addition, the MIC is 0.2 in test [7]; “=0.05” in [8]; “=0.05” in [9]; “=0.05” in [10]; “=0.05” in [11]; 0.4 µg/mL (≈ 0.468 µM) in [12]. In test [13], this compound yielded an MIC of 0.78.

Turning to `CCC1OC(=O)C(C)C(=O)C(C)C(OC2OC(C)CC(N(C)C)C2O)C(C)(OC)CC(C)C(=O)C(C)C2C1OC(=O)N2CCCOc1ccc(-c2cccnc2)cc1` (stereo not shown) [Compound 20r], the MIC in [1] was 1.56; in test [2] it was 50 µg/mL (≈ 61.7 µM); in test [3] it was 3.13; in [4] it was 3.13; in test [5], 1.56; in [6] (unit assumed), 25 µg/mL (≈ 30.9 µM). Besides, the MIC in test [7] was found to be 0.1; in test [8] (unit assumed) it was 0.4 µg/mL (≈ 0.494 µM); in [9] (unit assumed) it was 0.1 µg/mL (≈ 0.123 µM); in test [10] (unit assumed) it was 0.1 µg/mL (≈ 0.123 µM); in [11] (unit assumed), 0.1 µg/mL (≈ 0.123 µM); in test [12], 25 µg/mL (≈ 30.9 µM). The MIC in [13] was found to be 1.56.

Consider `CC[C@H]1OC(=O)[C@@](C)(F)C(=O)[C@H](C)[C@@H](OC2O[C@H](C)C[C@H](N(C)C)[C@H]2O)[C@@](C)(OC)C[C@@H](C)C(=O)[C@H](C)[C@H]2N(CCCC(C)(C)n3cnc4cccnc43)C(=O)O[C@]12CC` (stereo partly drawn) [Example 40, (3aS,4R,7S,9R,10R,11S,13R,15R,15aR)-3a,4-diethyl-7-fluoro-1-[4-(3H-imidazo[4,5-b]pyridin-3-yl)-4-methylpentyl]-11-methoxy-7,9,11,13,15-pentamethyl-2,6,8,14-tetraoxotetradecahydro-2H-oxacyclotetradecino[4,3-d][1,3]oxazol-10-yl-3,4,6-trideoxy-3-(dimethylamino)-D-xylo-hexopyranoside], for which the MIC in test [1] is 0.1; in [2] it was 6.25 µg/mL (≈ 7.39 µM); in test [3], 0.2; in [4], 0.2; in test [5] it was 0.2; in [6], “=0.05”. The MIC in test [7] is 0.2; in test [8], “=0.05”; in test [9], “=0.05”; in test [10], “=0.05”; in test [11] it was “=0.05”; in [12], 0.2 µg/mL (≈ 0.236 µM). Further, in test [13], the MIC was found to be 0.78.
